Reference: article PMC5961012 (Journal of Antimicrobial Chemotherapy, 2018)

Molecular target: T1, AceR (Acinetobacter baumannii, UniProt P0DUU5)
T1 sequence (P0DUU5 84-297): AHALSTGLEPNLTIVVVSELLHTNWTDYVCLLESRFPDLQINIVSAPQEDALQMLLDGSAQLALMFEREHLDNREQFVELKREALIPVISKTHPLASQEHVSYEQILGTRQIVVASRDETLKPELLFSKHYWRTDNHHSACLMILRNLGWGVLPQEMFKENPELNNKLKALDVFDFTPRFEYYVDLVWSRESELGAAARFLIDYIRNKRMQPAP
Assay: SPR
Assay type: binding

Compound `[H]/N=C(\N/C(=N/[H])NCCCCCCNC(=N)NC(=N)Nc1ccc(Cl)cc1)Nc1ccc(Cl)cc1` [chlorhexidine] has a Kd of 62.3 µM.
